The NIST ThermoML archive (doi:10.1021/je400055v)
± gives the expanded uncertainty stated by the source.

Assay: xn = mol fraction of the nth substance listed
Conditions: Liquid, Vibrating tube method

CCCCCCCCCCC [undecane] + CCCCCCC
Conditions | mass density [kg/m3]
362.91 K, 4000 kPa, x2 = 0.7482 | 649.6 ± 0.3
362.91 K, 4027 kPa, x2 = 0.2346 | 681.7 ± 0.3
362.91 K, 5000 kPa, x2 = 0.7482 | 650.9 ± 0.3
362.91 K, 5028 kPa, x2 = 0.2346 | 682.8 ± 0.3
362.91 K, 6000 kPa, x2 = 0.7482 | 652.2 ± 0.3
362.91 K, 6029 kPa, x2 = 0.2346 | 683.9 ± 0.3
362.91 K, 7000 kPa, x2 = 0.7482 | 653.5 ± 0.3
362.91 K, 7031 kPa, x2 = 0.2346 | 685 ± 0.3
362.91 K, 8000 kPa, x2 = 0.7482 | 654.7 ± 0.3
362.91 K, 8032 kPa, x2 = 0.2346 | 686.1 ± 0.3
362.91 K, 9000 kPa, x2 = 0.7482 | 656 ± 0.3
362.91 K, 9033 kPa, x2 = 0.2346 | 687.1 ± 0.3
362.91 K, 10000 kPa, x2 = 0.7482 | 657.2 ± 0.4
362.91 K, 10035 kPa, x2 = 0.2346 | 688.2 ± 0.3
362.91 K, 11000 kPa, x2 = 0.7482 | 658.4 ± 0.4
362.91 K, 11036 kPa, x2 = 0.2346 | 689.2 ± 0.3
362.91 K, 12000 kPa, x2 = 0.7482 | 659.5 ± 0.4
362.91 K, 12037 kPa, x2 = 0.2346 | 690.2 ± 0.3
362.91 K, 13000 kPa, x2 = 0.7482 | 660.7 ± 0.4
362.91 K, 13038 kPa, x2 = 0.2346 | 691.2 ± 0.4
362.91 K, 14000 kPa, x2 = 0.7482 | 661.8 ± 0.4
362.91 K, 14040 kPa, x2 = 0.2346 | 692.2 ± 0.4
362.91 K, 15000 kPa, x2 = 0.7482 | 662.9 ± 0.4
362.91 K, 15041 kPa, x2 = 0.2346 | 693.2 ± 0.4
362.91 K, 16000 kPa, x2 = 0.7482 | 664 ± 0.4
362.91 K, 16043 kPa, x2 = 0.2346 | 694.1 ± 0.4
362.91 K, 17000 kPa, x2 = 0.7482 | 665.1 ± 0.4
362.91 K, 17044 kPa, x2 = 0.2346 | 695.1 ± 0.4
362.91 K, 18000 kPa, x2 = 0.7482 | 666.2 ± 0.4
362.91 K, 18046 kPa, x2 = 0.2346 | 696 ± 0.4
362.91 K, 19000 kPa, x2 = 0.7482 | 667.2 ± 0.4
362.91 K, 19047 kPa, x2 = 0.2346 | 696.9 ± 0.4
362.91 K, 20000 kPa, x2 = 0.7482 | 668.3 ± 0.4
362.91 K, 20049 kPa, x2 = 0.2346 | 697.8 ± 0.4
362.91 K, 21000 kPa, x2 = 0.7482 | 669.3 ± 0.5
362.91 K, 21083 kPa, x2 = 0.2346 | 698.8 ± 0.4
362.91 K, 22000 kPa, x2 = 0.7482 | 670.3 ± 0.5
362.91 K, 22086 kPa, x2 = 0.2346 | 699.6 ± 0.4
362.91 K, 23000 kPa, x2 = 0.7482 | 671.3 ± 0.5
362.91 K, 23089 kPa, x2 = 0.2346 | 700.5 ± 0.4
362.91 K, 24000 kPa, x2 = 0.7482 | 672.2 ± 0.5
362.91 K, 24092 kPa, x2 = 0.2346 | 701.4 ± 0.4
362.91 K, 25000 kPa, x2 = 0.7482 | 673.2 ± 0.5
362.91 K, 25095 kPa, x2 = 0.2346 | 702.2 ± 0.5
362.92 K, 1001 kPa, x2 = 0.05 | 686.5 ± 0.3
362.92 K, 2001 kPa, x2 = 0.05 | 687.6 ± 0.3
362.92 K, 3000 kPa, x2 = 0.05 | 688.7 ± 0.3
362.92 K, 4000 kPa, x2 = 0.05 | 689.8 ± 0.3
362.92 K, 5000 kPa, x2 = 0.05 | 690.9 ± 0.3
362.92 K, 6000 kPa, x2 = 0.05 | 692 ± 0.3
362.92 K, 7000 kPa, x2 = 0.05 | 693 ± 0.3
362.92 K, 8001 kPa, x2 = 0.05 | 694.1 ± 0.3
362.92 K, 9000 kPa, x2 = 0.05 | 695.1 ± 0.3
362.92 K, 10000 kPa, x2 = 0.05 | 696.1 ± 0.3
362.92 K, 11000 kPa, x2 = 0.05 | 697.1 ± 0.3
362.92 K, 12000 kPa, x2 = 0.05 | 698.1 ± 0.3
362.92 K, 13000 kPa, x2 = 0.05 | 699.1 ± 0.4
362.92 K, 14000 kPa, x2 = 0.05 | 700 ± 0.4
362.92 K, 15000 kPa, x2 = 0.05 | 701 ± 0.4
362.92 K, 16000 kPa, x2 = 0.05 | 701.9 ± 0.4
362.92 K, 17000 kPa, x2 = 0.05 | 702.8 ± 0.4
362.92 K, 18000 kPa, x2 = 0.05 | 703.7 ± 0.4
362.92 K, 19000 kPa, x2 = 0.05 | 704.6 ± 0.4
362.92 K, 20000 kPa, x2 = 0.05 | 705.5 ± 0.4
362.92 K, 21000 kPa, x2 = 0.05 | 706.4 ± 0.4
362.92 K, 22001 kPa, x2 = 0.05 | 707.3 ± 0.4
362.92 K, 23000 kPa, x2 = 0.05 | 708.1 ± 0.4
362.92 K, 24000 kPa, x2 = 0.05 | 708.9 ± 0.4
362.92 K, 25000 kPa, x2 = 0.05 | 709.8 ± 0.4
362.94 K, 2001 kPa, x2 = 0.5063 | 664.4 ± 0.3
362.94 K, 3000 kPa, x2 = 0.5063 | 665.6 ± 0.3
362.94 K, 4000 kPa, x2 = 0.5063 | 666.8 ± 0.3
362.94 K, 5000 kPa, x2 = 0.5063 | 668 ± 0.3
362.94 K, 6000 kPa, x2 = 0.5063 | 669.2 ± 0.3
362.94 K, 7000 kPa, x2 = 0.5063 | 670.4 ± 0.3
362.94 K, 8001 kPa, x2 = 0.5063 | 671.5 ± 0.3
362.94 K, 9000 kPa, x2 = 0.5063 | 672.6 ± 0.3
362.94 K, 10000 kPa, x2 = 0.5063 | 673.8 ± 0.3
362.94 K, 11000 kPa, x2 = 0.5063 | 674.8 ± 0.3
362.94 K, 12000 kPa, x2 = 0.5063 | 675.9 ± 0.4
362.94 K, 13000 kPa, x2 = 0.5063 | 677 ± 0.4
362.94 K, 14000 kPa, x2 = 0.5063 | 678 ± 0.4
362.94 K, 15000 kPa, x2 = 0.5063 | 679.1 ± 0.4
362.94 K, 16000 kPa, x2 = 0.5063 | 680.1 ± 0.4
362.94 K, 17001 kPa, x2 = 0.5063 | 681.1 ± 0.4
362.94 K, 18000 kPa, x2 = 0.5063 | 682.1 ± 0.4
362.94 K, 19000 kPa, x2 = 0.5063 | 683.1 ± 0.4
362.94 K, 20000 kPa, x2 = 0.5063 | 684 ± 0.4
362.94 K, 21001 kPa, x2 = 0.5063 | 685 ± 0.4
362.94 K, 22050 kPa, x2 = 0.5063 | 685.9 ± 0.4
362.94 K, 23000 kPa, x2 = 0.5063 | 686.9 ± 0.5
362.94 K, 24000 kPa, x2 = 0.5063 | 687.8 ± 0.5
362.94 K, 25000 kPa, x2 = 0.5063 | 688.7 ± 0.5
